Where “and” joins values, the source holds several entries; their conditions need not be identical. Equal entries are not always repeated. Inconclusive results and toxic doses are left out. Cut-off read from the data, not from the text of the source: active = T/C of 150% or more; inactive = T/C below 125%.
Test system: L1210 leukemia ip in BDF1 mice, survival T/C
Assay: NCI In Vivo Anticancer Drug Screen. Data for tumor model L1210 Leukemia (intraperitoneal) in B6D2F1 (BDF1) mice
Conditions: endpoint: mean survival time, higher = longer survival
Procedure, shortened: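 Transplanted-tumor mice were given test agent; controls received vehicle only. Survival readings from the two groups were divided (treated over control).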

[1] = dose: 100.0 mg/kg/injection, schedule: Q01DX009 (ip), vehicle: Klucel (hydroxypropylcellulose) (HPC)
[2] = dose: 100.0 mg/kg/injection, schedule: Q04DX003 (ip), vehicle: Klucel (hydroxypropylcellulose) (HPC)
[3] = dose: 200.0 mg/kg/injection, schedule: Q01DX009 (ip), vehicle: Klucel (hydroxypropylcellulose) (HPC)
[4] = dose: 200.0 mg/kg/injection, schedule: Q04DX003 (ip), vehicle: Klucel (hydroxypropylcellulose) (HPC)
[5] = dose: 100.0 mg/kg/injection, schedule: Q04DX002 (ip), vehicle: Klucel (hydroxypropylcellulose) (HPC)
[6] = dose: 200.0 mg/kg/injection, schedule: Q04DX002 (ip), vehicle: Klucel (hydroxypropylcellulose) (HPC)
[7] = dose: 100.0 mg/kg/injection, schedule: Q01DX001 (ip), vehicle: saline
[8] = dose: 200.0 mg/kg/injection, schedule: Q01DX001 (ip), vehicle: saline
[9] = dose: 400.0 mg/kg/injection, schedule: Q01DX001 (ip), vehicle: saline
[10] = dose: 400.0 mg/kg/injection, schedule: Q01DX009 (ip), vehicle: Klucel (hydroxypropylcellulose) (HPC)
[11] = dose: 400.0 mg/kg/injection, schedule: Q04DX003 (ip), vehicle: Klucel (hydroxypropylcellulose) (HPC)
[12] = dose: 100.0 mg/kg/injection, schedule: Q04DX003 (ip), vehicle: saline
[13] = dose: 200.0 mg/kg/injection, schedule: Q04DX003 (ip), vehicle: saline
[14] = dose: 400.0 mg/kg/injection, schedule: Q04DX003 (ip), vehicle: saline
[15] = dose: 100.0 mg/kg/injection, schedule: Q01DX001 (ip), vehicle: Klucel (hydroxypropylcellulose) (HPC)
[16] = dose: 200.0 mg/kg/injection, schedule: Q01DX001 (ip), vehicle: Klucel (hydroxypropylcellulose) (HPC)
[17] = dose: 400.0 mg/kg/injection, schedule: Q04DX002 (ip), vehicle: Klucel (hydroxypropylcellulose) (HPC)

Measured: T/C

ClC(Cl)C(Cl)(Cl)C(Cl)(Cl)Cl
inactive: dose: 50.0 mg/kg/injection, schedule: Q01DX009 (ip), vehicle: Klucel (hydroxypropylcellulose) (HPC) 96 % of control | [1] 94 % of control | [2] 95 % of control | [3] 98 % of control | [4] 108 % of control

CCCC(=O)Nc1cccc2ccccc12
inactive: [5] 117 % of control | [6] 107 % of control

Cc1cc(NS(=O)(=O)c2ccc(N=Nc3c(N)[nH]c(=O)[nH]c3=O)cc2)nc(C)n1
inactive: [7] 115 % of control | [8] 96 % of control | [9] 93 % of control

NC(=O)c1ccccc1NC(=O)Nc1ccccc1
inactive: [1] 98 % of control | [2] 102 % of control | [3] 94 % of control | [4] 96 % of control | [10] 89 % of control | [11] 94 % of control

O=C(OCCBr)c1ccc(Cl)cc1
inactive: [12] 101 % of control | [13] 97 % of control | [14] 103 % of control

CCCc1c(N)nc(N)nc1C(=O)O
inactive: [15] 94 % of control | [1] 100 % of control | [16] 94 % of control | [3] 109 % of control | dose: 400.0 mg/kg/injection, schedule: Q01DX001 (ip), vehicle: Klucel (hydroxypropylcellulose) (HPC) 92 % of control | [10] 86 % of control

CCN(CC)c1ccc(N=C2C=C(C(=O)Nc3ccc(C(=O)O)cc3)C(=O)c3ccccc32)c(C)c1
inactive: [7] 102 % of control | [8] 100 % of control | [9] 102 % of control

O=c1c(N=Nc2ccc(Cl)cc2)c(O)n(-c2ccc(Cl)cc2)c(=S)n1-c1ccccc1
inactive: dose: 50.0 mg/kg/injection, schedule: Q01DX001 (ip), vehicle: Klucel (hydroxypropylcellulose) (HPC) 108 % of control | [15] 94 % of control | [16] 100 % of control

CCCCCCC(=O)N1CC(C)OC(C)C1 (configuration not stated)
inactive: [5] 96 % of control | [6] 96 % of control

CN1CCN(c2ccc([N+](=O)[O-])c3no[n+]([O-])c23)CC1
inactive: dose: 0.2 mg/kg/injection, schedule: Q03HX024 (ip), vehicle: saline with Tween-80 104 % of control | dose: 0.39 mg/kg/injection, schedule: Q03HX024 (ip), vehicle: saline with Tween-80 100 % of control | dose: 0.78 mg/kg/injection, schedule: Q03HX024 (ip), vehicle: saline with Tween-80 111 % of control | dose: 1.56 mg/kg/injection, schedule: Q03HX024 (ip), vehicle: saline with Tween-80 105 % of control | dose: 3.13 mg/kg/injection, schedule: Q03HX024 (ip), vehicle: saline with Tween-80 109 % of control | dose: 7.5 mg/kg/injection, schedule: Q01DX009 (ip), vehicle: saline 108 % of control and 115 % of control | dose: 10.0 mg/kg/injection, schedule: Q01DX009 (ip), vehicle: saline 118 % of control | dose: 15.0 mg/kg/injection, schedule: Q01DX009 (ip), vehicle: saline 115 % of control and 124 % of control | dose: 25.0 mg/kg/injection, schedule: Q01DX009 (ip), vehicle: saline 117 % of control | dose: 25.0 mg/kg/injection, schedule: Q04DX002 (ip), vehicle: Klucel (hydroxypropylcellulose) (HPC) 104 % of control | dose: 50.0 mg/kg/injection, schedule: Q04DX002 (ip), vehicle: Klucel (hydroxypropylcellulose) (HPC) 104 % of control | [5] 113 % of control

CCCCCCCCC(CO)(CCCCCCC)C(=O)O (configuration not stated)
inactive: dose: 100.0 mg/kg/injection, schedule: Q04DX002 (ip), vehicle: saline with Tween-80 88 % of control | dose: 200.0 mg/kg/injection, schedule: Q04DX002 (ip), vehicle: saline with Tween-80 88 % of control

CC(C)(C)CC#N
inactive: dose: 5.0 mg/kg/injection, schedule: Q01DX001 (ip), vehicle: saline 100 % of control | dose: 10.0 mg/kg/injection, schedule: Q01DX001 (ip), vehicle: saline 106 % of control | dose: 20.0 mg/kg/injection, schedule: Q01DX001 (ip), vehicle: saline 102 % of control | dose: 40.0 mg/kg/injection, schedule: Q01DX001 (ip), vehicle: saline 106 % of control | dose: 80.0 mg/kg/injection, schedule: Q01DX001 (ip), vehicle: saline 100 % of control | [7] 94 % of control

Oc1cccc(-c2cc3c(O)ccc(O)c3[nH]2)c1
inactive: [5] 86 % of control | [6] 99 % of control | [17] 91 % of control

NC1C(=O)NC(=O)NC1=S (configuration not stated)
inactive: dose: 29.0 mg/kg/injection, schedule: Q01DX Z (ip), vehicle: methylcellulose (MC) 100 % of control | dose: 45.0 mg/kg/injection, schedule: Q01DX Z (ip), vehicle: methylcellulose (MC) 107 % of control

ClC1CC2CCC1(Cl)C2 (configuration not stated)
inactive: [1] 97 % of control | [2] 96 % of control | [3] 92 % of control | [4] 100 % of control | [10] 93 % of control | [11] 96 % of control

Cc1ccc(NCc2cccc3ccccc23)c(C)c1
inactive: dose: 100.0 mg/kg/injection, schedule: Q01DX009 (ip), vehicle: saline 96 % of control | [12] 104 % of control | dose: 200.0 mg/kg/injection, schedule: Q01DX009 (ip), vehicle: saline 97 % of control | [13] 102 % of control | dose: 400.0 mg/kg/injection, schedule: Q01DX009 (ip), vehicle: saline 94 % of control | [14] 96 % of control

c1ccc(C2SC(c3ccccc3)SC(c3ccccc3)S2)cc1 (configuration not stated)
inactive: [7] 90 % of control | [8] 88 % of control | [9] 92 % of control

CC(=O)N1CCCC2CCc3c([nH]c4ccccc34)C21 (configuration not stated)
inactive: dose: 75.0 mg/kg/injection, schedule: Q01DX001 (ip), vehicle: other 110 % of control | dose: 150.0 mg/kg/injection, schedule: Q01DX001 (ip), vehicle: other 119 % of control | dose: 300.0 mg/kg/injection, schedule: Q01DX001 (ip), vehicle: other 110 % of control

c1ccc2c[n+](CC[n+]3ccc4ccccc4c3)ccc2c1
inactive: dose: 75.0 mg/kg/injection, schedule: Q04DX003 (ip), vehicle: saline 98 % of control

CC(C)(C)OC(=O)c1cc([N+](=O)[O-])cc([N+](=O)[O-])c1
inactive: [5] 104 % of control | [6] 104 % of control | [17] 107 % of control

O=S1(=O)CCS(=O)(=O)C12CCCCC2
inactive: [7] 98 % of control | [8] 107 % of control | [9] 90 % of control

Cc1ccc(C(=O)C2C3C=CC(C3)C2C(=O)c2ccc(C)cc2)cc1 (configuration not stated)
inactive: dose: 75.0 mg/kg/injection, schedule: Q01DX009 (ip), vehicle: Klucel (hydroxypropylcellulose) (HPC) 95 % of control | dose: 150.0 mg/kg/injection, schedule: Q01DX009 (ip), vehicle: Klucel (hydroxypropylcellulose) (HPC) 90 % of control | dose: 300.0 mg/kg/injection, schedule: Q01DX009 (ip), vehicle: Klucel (hydroxypropylcellulose) (HPC) 95 % of control

CN(C)C(=O)Nc1ccc(C#N)cc1
inactive: [5] 89 % of control | [6] 103 % of control | [17] 106 % of control

C[N+]1(Cc2ccccc2)CCC(=O)CC1
inactive: dose: 50.0 mg/kg/injection, schedule: Q01DX001 (ip), vehicle: saline 97 % of control | [7] 100 % of control | [8] 103 % of control

From PubChem BioAssay AID248 (DTP/NCI, 2004)
